Reference: PMC12384620, “Hit-to-Lead Studies of Pyrazinylpiperazines against Visceral Leishmaniasis: Pharmacokinetic Profile and In Vivo Efficacy of Potent Compounds against Leishmania infantum” (ACS Pharmacology & Translational Science, 2025)

Assays:
[1] = test system: L. infantum::tdTomato; assay type: in vivo, mouse; settings: 500 mg/kg/day i.p., 10 days
Experimental: BALB/c mice (male, 6 to 8 weeks old, 18 to 20 g) were inoculated intravenously (tail vein) with 2 × 10^7 late-log-phase L. infantum promastigotes from Li::tdTomato lines, and randomly assigned into one of the four treatment groups (six mice per group). After 7 days of infection, […] was administered intraperitoneally in a single dose 500 mg/kg/day meglumine antimoniate (Glucantime, Sanofi Medley), both groups treated with 2 received two daily intraperitoneal injections totaling either 50 mg/kg/day or 100 mg/kg/day of 2, and the control group was administered the vehicle solution. For the intraperitoneal injection, 2 was formulated as follows: a stock solution of 2 in DMSO (100 mg/mL) was prepared daily, and a solution of 70% PBS1X, 20% PEG 400 (Polyethylene Glycol 400, Sigma-Aldrich), 0.16% Tween 80 and 10% of 2 (from the stock solution) was prepared. The control group was also administered this solution, replacing 2 with 10% DMSO. All mice were euthanized 3 days after the end of the treatment, and the liver and spleen of each animal were collected.
The number of viable parasites in each organ was determined using a quantitative limiting dilution assay. Briefly, the organs were macerated using an Ultra-Turrax disperser (IKA-Werke GmbH & Co. KG., Staufen, Germany), and a tissue homogenate was obtained with 1 mL of M199 medium. Each tissue homogenate was sequentially diluted (10-fold) in 96-well flat-bottom microtiter black plates and incubated at 26 °C for 10 days. The wells containing motile promastigotes were identified with an inverted microscope (Axiovert 25, Zeiss), and the parasite burden was determined from the highest dilution at which promastigotes had grown after 10 days of incubation.

[2] = PAMPA blood-brain barrier permeability; assay type: in vitro ADME; settings: for BBB permeation class: PAMPA-BBB classification; for Papp at 0.2 mg/mL: PAMPA-BBB, pH 7.4, read-out: BBB Pe
Experimental: One mg of each compound was solubilized in ethanol (1 mL) in a 5 mL flask, and an additional 500 μL ethanol and 3.5 mL PBS buffer (pH 7.4) were added to this solution. […] 180 μL of a PBS (pH 7.4)/ethanol (70:30) solution were then added to the wells of a 96-well receiver plate, and 5 μL of a porcine brain lipid solution (20 mg/mL in dodecane) to the wells of a 96-well donor plate. […] Afterward, the donor plate was removed, and the content of the receiver plate was transferred to a UV reading plate, which was read using a microplate reader (SpectraMax 5 – Molecular Devices). A reference sample for the internal correction of the microplate reader was prepared using 180 μL of the PBS (pH 7.4)/ethanol (70:30) solution (adapted from ref ). The optical density values obtained from the content of the receiver plate were compared with the ones obtained from readings performed with the initial solutions containing each compound, before their addition to the donor plate. […] The optical density values for the experimental controls were used to determine the equation of the linear regression (optical density vs P e ), which allowed the determination of the P e value of each compound from the optical density values obtained from the receiver plate, using an in-house Microsoft Excel spreadsheet.

[3] = Metabolic stability in mouse liver microsomes; assay type: in vitro ADME; settings: pH 7.4, MLM, with NADPH cofactor; for microsomal CLint at 5 μM: read-out: Clint, intrinsic clearance; for half-life at 5 μM: read-out: t1/2, microsomal half-life
Experimental: To a microcentrifuge tube was added 1 mg/mL Mouse Liver Microsome (MLM), a NADPH generating system consisting of 1 mM NADP+, 1.5 mM MgCl2, 3.5 mM glucose-6-phosphate and 0.5 U/mL glucose-6-phosphate dehydrogenase, and phosphate buffer (pH 7.4) in a sufficient amount for a total volume of […]. After a 15 min preincubation at 37 °C in a water bath, the enzymatic reactions were started by adding 2 μL of a […] stock solution of each compound to be assessed, reaching a final concentration of 5 μM in the tested compound. , The samples were further incubated at 37 °C under stirring (30 rpm) for predetermined periods (0, 15, 30, 45, and 60 min), and 500 μL chilled MeOH and 500 μL chilled acetonitrile were added before the samples were homogenized and left standing in an ice bath to accelerate protein precipitation. The resulting mixture was centrifugated at 13000 rpm for 15 min at 4 °C, the organic layer was extracted and 2 μL internal standard (clonazepam 5 μM) was added. Finally, the samples were filtered through a PVDF filter (Millex 0.22 μm x 13 mm) and analyzed by HPLC-PDA. ,

[4] = PAMPA gastrointestinal tract permeability; assay type: in vitro ADME; settings: for Papp at 8 h, 0.5 mM: PAMPA-GI, read-out: GI Pe
Experimental: A 10 mM solution of each compound in DMSO was prepared and subsequently homogenized in a 5 mL flask with 4.75 mL PBS (pH 6.6) (10 mM). […] 180 μL of a PBS (pH 7.4)/DMSO (95:5) solution were then added to the wells of a 96-well receiver plate, and 5 μL of a L-α-phosphatidylcholine solution (20 mg/mL in dodecane) to the wells of a 96-well donor plate. After 5 min, 180 μL of the solutions containing each compound were added to the wells of the donor plate, in triplicate, and the donor plate was carefully placed over the receiver plate in a “sandwich-like” system, which was left stirring (50 rpm) for 8 h at rt in a sealed vessel containing 10 mL PBS (pH 7.4). Afterward, the donor plate was removed, and the content of the receiver plate was transferred to a UV reading plate, which was read using a microplate reader (SpectraMax 5 – Molecular Devices). A reference sample for the internal correction of the microplate reader was prepared using 180 μL of the PBS (pH 7.4)/DMSO (95:5) solution (adapted from refs and ). The optical density values obtained from the content of the receiver plate were compared with the ones obtained from readings performed with the initial solutions containing each compound, before their addition to the donor plate. […] The optical density values from the receptor plate were compared to those from experimental controls to determine the F a value for each compound, using Microsoft Excel.

[5] = test system: L. braziliensis; test: Inhibition of growth of L. braziliensis in THP-1 macrophages; assay type: cell-based; settings: Leishmania braziliensis
Excerpt: 1 In Vitro Antileishmanial Potency, Selectivity Index, and ADME Properties of Compounds 1 – 6 | column: L. braziliensis IC50 (μM)^b (SI)^b

[6] = test system: L. infantum; test: Antileishmanial activity against L. infantum amastigotes in THP-1 macrophages; assay type: cell-based; settings: Leishmania infantum; growth of L. infantum in THP-1 macrophages, 72 h
Experimental: The in vitro anti-L. infantum activity (IC50) of each compound was evaluated on THP-1 cells (human leukemia monocytic cell line) infected with L. infantum promastigotes, and the in vitro cytotoxicity (CC50) was determined over the THP-1 cell line. The selectivity index (SI) was calculated as the ratio of the CC50 value determined in the cytotoxicity assay, divided by the IC50 value determined in the antileishmanial activity assay.
Cells derived from the human monocytic strain THP-1 were cultured in complete Rowell Park Memorial Institute (RPMI)-1640 medium (supplemented with 10% fetal bovine serum, 100 U/mL penicillin, and 100 μg/mL streptomycin). Monocytes were differentiated into macrophages by the addition of 20 ng/mL phorbol myristate acetate (PMA). After 72 h, the macrophages (5 × 10^4), in black 96-well microtiter plates (Corning Incorporated, Corning, NY), were infected with Leishmania (Leishmania) infantum (MHOM/BR/1974/PP75) promastigotes transfected with gene tdTomato, on the second day of the stationary phase (20 parasites per macrophage) for 4 h. […] The IC50 values were determined by nonlinear regression using a variable slope model (log(concentration) vs growth inhibition) with the GraphPadPrism v8.2.0 (CA, USA) software. Controls with uninfected cells, untreated infected cells, and infected cells treated with amphotericin B at 0.25 μM (positive control) or DMSO 1% were used. Quadruplicates were run on the same plate, and the experiments were repeated at least once.

[7] = test system: L. infantum promastigotes; test: Flow cytometric cell cycle analysis (PI); assay type: cell-based, Leishmania infantum; settings: 24 h, 0.5x, 1x, 2x IC50, PI
Experimental: Then, the cells were collected, washed twice with 1 × PBS, and fixed in 70% ethanol at 4 °C for 24 h. The fixed parasites were then washed with 1 × PBS and the pellet was treated with 500 μL of RNase A (20 mg/mL) and incubated at 37 °C for 1 h. Subsequently, the parasites were stained with 10 μg/mL propidium iodide (PI) in the dark for 20 min. Cell cycle distribution, determining the percentage of cells in G0, G1, S, and G2/M phases, was analyzed using an Accuri C5 BD flow cytometer. The histograms presented are representative of results obtained from three independent experiments.

[8] = test system: L. infantum::tdTomato intracellular amastigotes; test: Synergism between 2 and Sb^III against intracellular L. infantum amastigotes; assay type: cell-based, Leishmania infantum; settings: compounds tested separately, 72 h; read-out: IC50 against intracellular amastigotes of L. infantum
Experimental: Cells derived from the human monocytic strain THP-1 were cultured in complete Rowell Park Memorial Institute (RPMI)-1640 medium (supplemented with 10% fetal bovine serum, 100 U/mL penicillin, and 100 μg/mL streptomycin). Monocytes were differentiated into macrophages by the addition of 20 ng/mL phorbol myristate acetate (PMA). After 72 h, the macrophages (5 × 10^4), in black 96-well microtiter plates (Corning Incorporated, Corning, NY), were infected with Leishmania (Leishmania) infantum (MHOM/BR/1974/PP75) promastigotes expressing red fluorescence protein on the second day of the stationary phase (20 parasites per macrophage) for 4 h. […] To investigate the possibility of synergism between Sb^III and compound 2, […] different concentrations of these drugs were used (1.0, 0.5, 0.2, 0.1, and 0.05 μg/mL), the solutions of Sb^III and 2 being prepared and diluted the day of the assay. The compounds were tested separately and in combination. […] The EC50 values were determined by nonlinear regression using a Variable slope model (log(concentration) vs growth inhibition) with the GraphPadPrism v8.2.0 (CA, USA) software. By normalizing the data as a fractional response, it was possible to perform the calculation using a Bayesian model. The results were compared to each other to determine whether the combination of compounds has a synergistic, antagonistic or additive effect. Controls with uninfected cells, untreated infected cells, infected cells treated with amphotericin B at 0.25 μM (positive control) or DMSO 1% were used. Quadruplicates were run on the same plate, and the experiments were repeated at least once.

Compound	parasite burden in spleen and liver [1]	BBB permeation class [2]	Papp at 0.2 mg/mL [2] [×10⁻⁶ cm/s]	microsomal CLint at 5 μM [3] [µL/min/mg]	half-life at 5 μM [3] [h]	Fa, fraction absorbed (GI) [4] [%]	Papp at 8 h, 0.5 mM [4] [×10⁻⁶ cm/s]	IC50 [5] [µM]	IC50 [6] [µM]	effect on cell cycle progression [7]	IC50 [8] [µM]
meglumine antimoniate [reference compound]	almost completely eradicated	–	–	–	–	–	–	–	–	–	–
COc1ccc(C(=O)N2CCN(c3cnccn3)CC2)cc1 [Compound 3, (4-Methoxyphenyl)(4-(pyrazin-2-yl)piperazin-1-yl)methanone]	–	CNS± (CNS±: uncertain BBB permeation, 2.0 < P e (10^–6 cm/s) < 4.0)	2.21	0.925	3.12	99.90	18.2	10.1 ± 2.8	4.5 ± 0.7	–	–
CCCCCCCCCCCCCCCCOP(=O)([O-])OCC[N+](C)(C)C [Miltefosine, miltefosine, reference compound]	–	–	–	–	–	–	–	–	–	same pattern of cell cycle arrest	–
Nc1ccc(C(=O)N2CCN(c3cnccn3)CC2)cn1 [Compound 4, (6-Aminopyridin-3-yl)(4-(pyrazin-2-yl)piperazin-1-yl)methanone]	–	–	1.02	0.675	4.28	99.91	18.4	11.9 ± 1.1	5.1 ± 2.1	–	–
O=C(c1cccc(O)c1O)N1CCN(c2cnccn2)CC1 [Compound 6, (2,3-Dihydroxyphenyl)(4-(pyrazin-2-yl)piperazin-1-yl)methanone]	–	CNS+ (CNS+: high BBB permeation, P e (10^–6 cm/s) > 4.0)	4.51	4.2	0.688	86.26	5.22	0.2 ± 0.2	2.8 ± 1.1	–	–
[Sb+3] [Sb^III, reference compound]	–	–	–	–	–	–	–	–	–	–	2.4 ± 0.47
O=C(c1ccc2cc(O)ccc2c1)N1CCN(c2cnccn2)CC1 [Compound 5, (6-Hydroxynaphthalen-2-yl)(4-(pyrazin-2-yl)piperazin-1-yl)methanone]	–	–	0.96	0.8	3.61	45.70	1.61	2.6 ± 0.2	3.3 ± 2.7	–	–
CC(C)NCC(O)COc1ccc(CC(N)=O)cc1 (stereo not drawn) [Atenolol, reference compound]	–	–	–	–	–	1.70	–	–	–	–	–
C[C@@H]1[C@H](O)[C@@H](C)/C=C/C=C/C=C/C=C/C=C/C=C/C=C/[C@H](O[C@@H]2O[C@H](C)[C@@H](O)[C@H](N)[C@@H]2O)C[C@@H]2O[C@](O)(C[C@@H](O)C[C@@H](O)[C@H](O)CC[C@@H](O)C[C@@H](O)CC(=O)O[C@H]1C)C[C@H](O)[C@H]2C(=O)O [AmB, Amphotericin B, reference compound]	–	–	–	–	–	–	–	0.1	0.3	–	–
